Source: article PMC3549563 (Journal of Neurochemistry, 2012)

Target: T1, ACR-16 (Caenorhabditis elegans, UniProt P48180)
T1 sequence (P48180 20-498): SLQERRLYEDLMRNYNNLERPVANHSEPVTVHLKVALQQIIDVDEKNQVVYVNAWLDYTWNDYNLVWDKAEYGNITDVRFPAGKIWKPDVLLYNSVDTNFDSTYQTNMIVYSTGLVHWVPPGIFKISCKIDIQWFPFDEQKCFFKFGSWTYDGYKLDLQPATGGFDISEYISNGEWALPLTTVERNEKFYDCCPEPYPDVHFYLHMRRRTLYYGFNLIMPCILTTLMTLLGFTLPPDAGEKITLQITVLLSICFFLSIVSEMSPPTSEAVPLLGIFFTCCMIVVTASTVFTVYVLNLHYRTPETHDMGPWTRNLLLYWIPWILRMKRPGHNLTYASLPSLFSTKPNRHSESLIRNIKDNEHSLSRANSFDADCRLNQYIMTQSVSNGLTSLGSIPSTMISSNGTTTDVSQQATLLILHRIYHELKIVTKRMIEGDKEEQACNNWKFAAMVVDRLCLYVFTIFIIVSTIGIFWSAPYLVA
Assay: two-electrode voltage clamp, Xenopus oocytes, peak current
Assay type: cell-based

| SMILES | EC50 [µM] |
| --- | --- |
| CN1CCC[C@H]1c1cccnc1 [nicotine] | 22 |
| CC(=O)OCC[N+](C)(C)C [acetylcholine] | 24 |
